# Like-named read-outs stand apart in the source and are kept apart here.
# What was measured:
# P388/0 leukemia = details: P388/0, Q1D × 1 (1); for MEDIAN DAY OF DEATH: dying mice only
# P388/BCNU leukemia = assay: Antitumor activity against IP-implanted P388/BCNU leukemia in mice; details: P388/BCNU, Q1D × 1 (1); for MEDIAN DAY OF DEATH: dying mice only
# P388/CPA leukemia = assay: Antitumor activity against IP-implanted P388/CPA leukemia in mice; format: in vivo, murine; details: P388/CPA, Q1D × 1 (1); for MEDIAN DAY OF DEATH: dying mice only
# human MX-1 mammary tumor [1] = assay: In vivo antitumor activity vs i.c.-implanted human MX-1 mammary tumor xenograft in athymic mice; details: ic MX-1, Days 1-5
# human MX-1 mammary tumor [2] = assay: In vivo antitumor activity vs s.c.-implanted human MX-1 mammary tumor xenograft in athymic mice; details: for T-C / Tumor-Free-Surv/Total: sc MX-1; for antitumor activity (in words): MX-1 implanted s.c. or i.c.
# [3] = oral (gavage) 135 mg/kg/dose, Days 13-17
# [4] = oral (gavage) 135 mg/kg/dose, Days 12-16
structure (smiles),measurement,setting,value
"O=NN(CCCl)C(=O)NCCCl [BCNU (carmustine), carmustine]",50-DAY SURV/TOTAL,P388/0 leukemia; IP 20.0 mg/kg/dose,3/6
same,APPROX. NET LOG10 CHANGE IN TUMOR BURDEN AT END OF Rx,P388/0 leukemia; IP 20.0 mg/kg/dose,ca −8.8
same,MEDIAN DAY OF DEATH,P388/0 leukemia; IP 20.0 mg/kg/dose,27.0
same,50-DAY SURV/TOTAL,P388/0 leukemia; IP 30.0 mg/kg/dose,6/6
same,50-DAY SURV/TOTAL,P388/BCNU leukemia; IP 20.0 mg/kg/dose,0/6
same,% ILS,P388/BCNU leukemia; IP 20.0 mg/kg/dose,0%
same,APPROX. NET LOG10 CHANGE IN TUMOR BURDEN AT END OF Rx,P388/BCNU leukemia; IP 20.0 mg/kg/dose,0
same,MEDIAN DAY OF DEATH,P388/BCNU leukemia; IP 20.0 mg/kg/dose,9.0
same,50-DAY SURV/TOTAL,P388/BCNU leukemia; IP 30.0 mg/kg/dose,0/6
same,% ILS,P388/BCNU leukemia; IP 30.0 mg/kg/dose,−6%
same,APPROX. NET LOG10 CHANGE IN TUMOR BURDEN AT END OF Rx,P388/BCNU leukemia; IP 30.0 mg/kg/dose,+0.4
same,MEDIAN DAY OF DEATH,P388/BCNU leukemia; IP 30.0 mg/kg/dose,8.5
"O=P1(N(CCCl)CCCl)NCCCO1 (stereo not drawn) [CPA (cyclophosphamide), cyclophosphamide]",50-DAY SURV/TOTAL,P388/CPA leukemia; IP 175.0 mg/kg/dose,0/6
same,% ILS,P388/CPA leukemia; IP 175.0 mg/kg/dose,+9%
same,APPROX. NET LOG10 CHANGE IN TUMOR BURDEN AT END OF Rx,P388/CPA leukemia; IP 175.0 mg/kg/dose,−0.6
same,MEDIAN DAY OF DEATH,P388/CPA leukemia; IP 175.0 mg/kg/dose,12.0
same,50-DAY SURV/TOTAL,P388/CPA leukemia; IP 265.0 mg/kg/dose,0/6
same,% ILS,P388/CPA leukemia; IP 265.0 mg/kg/dose,+27%
same,APPROX. NET LOG10 CHANGE IN TUMOR BURDEN AT END OF Rx,P388/CPA leukemia; IP 265.0 mg/kg/dose,−1.7
same,MEDIAN DAY OF DEATH,P388/CPA leukemia; IP 265.0 mg/kg/dose,14.0
same,50-DAY SURV/TOTAL,P388/0 leukemia; IP 175.0 mg/kg/dose,1/6
same,APPROX. NET LOG10 CHANGE IN TUMOR BURDEN AT END OF Rx,P388/0 leukemia; IP 175.0 mg/kg/dose,ca −8.8
same,MEDIAN DAY OF DEATH,P388/0 leukemia; IP 175.0 mg/kg/dose,30.0
same,50-DAY SURV/TOTAL,P388/0 leukemia; IP 265.0 mg/kg/dose,6/6
COc1nc(C(Cl)(Cl)Cl)c(Cl)c(OC(=O)COC(C)=O)c1Cl [DM-AA-PEN],Median % ILS (dying mice only),human MX-1 mammary tumor [1]; IP 135 mg/kg/dose,+67%
same,Tumor-Free-Surv/Total,human MX-1 mammary tumor [1]; IP 135 mg/kg/dose,0/5
same,Tumor-Free-Surv/Total,human MX-1 mammary tumor [1]; oral (gavage) 135 mg/kg/dose,2/5
C=CC(=O)Oc1c(Cl)c(OC)nc(C(Cl)(Cl)Cl)c1Cl [DM-AC-PEN],T-C,"human MX-1 mammary tumor [2]; IP 60 mg/kg/dose, Days 12-16",30.0 days
same,Tumor-Free-Surv/Total,"human MX-1 mammary tumor [2]; IP 60 mg/kg/dose, Days 12-16",1/5
same,Median % ILS (dying mice only),human MX-1 mammary tumor [1]; IP 60 mg/kg/dose,+55%
COc1nc(C(Cl)(Cl)Cl)c(Cl)c(OC(=O)c2ccccc2)c1Cl [DM-B-PEN],antitumor activity (in words),human MX-1 mammary tumor [2]; i.p. administration,high activity
same,antitumor activity (in words),human MX-1 mammary tumor [2]; oral drug treatment,low antitumor activity
same,Tumor-Free-Surv/Total,"human MX-1 mammary tumor [2]; IP 135 mg/kg/dose, Days 11-15",5/5
same,T-C,human MX-1 mammary tumor [2]; [3],-1.4 days
same,Tumor-Free-Surv/Total,human MX-1 mammary tumor [2]; [3],0/5
same,Median % ILS (dying mice only),human MX-1 mammary tumor [1]; IP 135 mg/kg/dose,+84%
same,Median % ILS (dying mice only),human MX-1 mammary tumor [1]; oral (gavage) 135 mg/kg/dose,+12%
COc1nc(C(Cl)(Cl)Cl)c(Cl)c(OC(=O)CBr)c1Cl [DM-BA-PEN],T-C,"human MX-1 mammary tumor [2]; IP 135 mg/kg/dose, Days 12-16",>41.0 days
same,Tumor-Free-Surv/Total,"human MX-1 mammary tumor [2]; IP 135 mg/kg/dose, Days 12-16",2/5
COc1nc(C(Cl)(Cl)Cl)c(Cl)c(OC(=O)CCl)c1Cl [DM-CA-PEN],T-C,"human MX-1 mammary tumor [2]; IP 60 mg/kg/dose, Days 12-16",>41.0 days
same,Tumor-Free-Surv/Total,"human MX-1 mammary tumor [2]; IP 60 mg/kg/dose, Days 12-16",3/5
same,T-C,human MX-1 mammary tumor [2]; [4],>41.0 days
same,Tumor-Free-Surv/Total,human MX-1 mammary tumor [2]; [4],5/5
same,Median % ILS (dying mice only),human MX-1 mammary tumor [1]; oral (gavage) 135 mg/kg/dose,+84%
COc1nc(C(Cl)(Cl)Cl)c(Cl)c(OC(=O)c2ccc(CCl)cc2)c1Cl [DM-CMB-PEN],Median % ILS (dying mice only),human MX-1 mammary tumor [1]; IP 90 mg/kg/dose,+73%
same,Tumor-Free-Surv/Total,human MX-1 mammary tumor [1]; IP 90 mg/kg/dose,0/5
COC(=O)CCC(=O)Oc1c(Cl)c(OC)nc(C(Cl)(Cl)Cl)c1Cl [DM-CMP-PEN],Tumor-Free-Surv/Total,"human MX-1 mammary tumor [2]; IP 135 mg/kg/dose, Days 11-15",3/5
same,Tumor-Free-Surv/Total,human MX-1 mammary tumor [2]; [3],2/5
same,Median % ILS (dying mice only),human MX-1 mammary tumor [1]; IP 90 mg/kg/dose,+87%
same,Median % ILS (dying mice only),human MX-1 mammary tumor [1]; oral (gavage) 90 mg/kg/dose,+76%
COc1nc(C(Cl)(Cl)Cl)c(Cl)c(OC(=O)C(Cl)Cl)c1Cl [DM-DCA-PEN],Tumor-Free-Surv/Total,"human MX-1 mammary tumor [2]; IP 135 mg/kg/dose, Days 12-16",2/5
